Experimental data reported in patent US20020132853A1, “Capsaicin receptor ligands” (priority 2000, published 2002).
Read-outs that look alike come from different tables or passages of the source.

Target: T1, human capsaicin receptor (Homo sapiens, UniProt Q8NER1)
T1 construct: expression consrtuct encoding the full length human capsaicin receptor; expressed in transfected cells
Experiment: Antagonist assay for Capsaicin receptor mediated calcium mobilization
Format: cell-based
Conditions: read-out: EC50 (the source's name)
How it was run: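 Cells expressing human capsaicin receptor, loaded with Fluo-3 AM, were preincubated 0.5–6 h at room temperature in the dark with test compound at 1–5 μM final in KRH buffer (pH 7.4, 2 mM CaCl2, probenecid). Capsaicin at its EC50 was then added via FLIPR; IC50 is the antagonist concentration halving the calcium signal.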

T1 sequence (Q8NER1 whole entry): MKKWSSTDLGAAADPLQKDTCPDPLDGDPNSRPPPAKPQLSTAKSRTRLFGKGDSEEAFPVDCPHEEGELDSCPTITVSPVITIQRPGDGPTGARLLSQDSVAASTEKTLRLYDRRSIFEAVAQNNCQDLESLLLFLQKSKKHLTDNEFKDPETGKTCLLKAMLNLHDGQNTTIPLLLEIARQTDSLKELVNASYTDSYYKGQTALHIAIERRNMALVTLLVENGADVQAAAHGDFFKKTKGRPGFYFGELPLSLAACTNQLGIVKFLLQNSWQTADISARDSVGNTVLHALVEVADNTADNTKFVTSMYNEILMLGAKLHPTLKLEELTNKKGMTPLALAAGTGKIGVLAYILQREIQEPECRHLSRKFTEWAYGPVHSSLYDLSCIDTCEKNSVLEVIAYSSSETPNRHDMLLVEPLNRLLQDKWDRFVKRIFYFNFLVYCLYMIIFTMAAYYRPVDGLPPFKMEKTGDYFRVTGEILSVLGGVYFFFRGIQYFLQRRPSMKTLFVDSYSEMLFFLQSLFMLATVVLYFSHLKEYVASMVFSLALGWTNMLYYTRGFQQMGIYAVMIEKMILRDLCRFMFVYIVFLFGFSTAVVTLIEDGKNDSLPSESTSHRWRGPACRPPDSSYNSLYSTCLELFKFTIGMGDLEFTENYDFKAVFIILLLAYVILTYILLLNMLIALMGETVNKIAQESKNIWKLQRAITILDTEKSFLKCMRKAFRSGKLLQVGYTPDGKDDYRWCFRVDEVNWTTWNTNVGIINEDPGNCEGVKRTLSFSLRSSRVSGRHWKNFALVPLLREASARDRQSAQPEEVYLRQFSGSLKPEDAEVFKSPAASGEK

| Structure (SMILES) | IC50 (Table III) | IC50 (Table V) | also measured |
| --- | --- | --- | --- |
| CC(C)C1CN(c2ncccc2C(F)(F)F)CCN1C(=O)Nc1ccc(C(F)(F)F)cc1 (centres unmarked) [Compound 73, 2-isopropyl-N-[4-(trifluoromethyl)phenyl]-4-[3-(trifluoromethyl)pyridin-2-yl]piperazine-1-carboxamide] | < 1 µM | – | – |
| C[C@H]1CN(c2ncccc2Cl)CCN1C(=S)Nc1ccc(C(C)(C)C)cc1 [Compound 171] | – | – | IC50 (Table VI): < 1 µM |
| C[C@@H]1CN(c2ncccc2C(F)(F)F)CCN1C(=O)Nc1ccc(F)c(C(F)(F)F)c1 [Compound 161, (2R)-N-[4-fluoro-3-(trifluoromethyl)phenyl]-2-methyl-4-[3-(trifluoromethyl)pyridin-2-yl]piperazine-1-carboxamide] | – | < 1 µM | – |
| CCCCc1ccc(NC(=S)N2CCN(c3ncccc3Cl)C[C@H]2C)cc1 [Compound 167] | – | – | IC50 (Table VI): < 1 µM |
| C[C@@H]1CN(c2nccnc2Cl)CCN1C(=O)Nc1ccc(C(F)(C(F)(F)F)C(F)(F)F)cc1 [Compound 164, (2R)-4-(3-chloropyrazin-2-yl)-2-methyl-N-{4-[1,2,2,2-tetrafluoro-1-(trifluoromethyl)ethyl]phenyl}piperazine-1-carboxamide] | – | – | IC50 (Table VI): < 1 µM |
| O=C(Nc1cccc(Cl)c1)N1CCN(c2cc(C(F)(F)F)ccn2)CC1 [Compound 109, N-(3-chlorophenyl)-4-[4-(trifluoromethyl)pyridin-2-yl]piperazine-1-carboxamide] | – | < 1 µM | – |
| C[C@@H]1CN(c2ncccc2Cl)CCN1C(=O)Nc1ccc(C(F)(F)F)nc1 [Compound 98, (2R)-4-(3-chloropyridin-2-yl)-2-methyl-N-[6-(trifluoromethyl)pyridin-3-yl]piperazine-1-carboxamide] | – | – | IC50 (Table IV): < 1 µM |
| CCC1CN(c2ncccc2C(F)(F)F)CCN1C(=O)Nc1ccc(C(F)(F)F)cc1 (centres unmarked) [Compound 62, 2-ethyl-N-[4-(trifluoromethyl)phenyl]-4-[3-(trifluoromethyl)pyridin-2-yl]piperazine-1-carboxamide] | < 1 µM | – | – |
| C[C@@H]1CN(c2ncccc2Cl)CCN1C(=O)Nc1ccc(C(C(F)(F)F)(C(F)(F)F)C(F)(F)F)cc1 [Compound 148, *2R)-4-(3-chloropyridin-2-yl)-2-methyl_n_{4-[2,2,2-trifluoro-1,1-bis(trifluoromethyl)-ethyl]phenyl}piperazine-1-carboxamide] | – | < 1 µM | – |
| C[C@@H]1CN(c2ncccc2C(F)(F)F)CCN1C(=O)Nc1ccc(C(F)(C(F)(F)F)C(F)(F)F)cc1 [Compound 163, (2R)-2-methyl-N-{4-[1,2,2,2-tetrafluoro-1-(trifluoromethyl)ethyl]phenyl}-4-[3-(trifluoromethyl)pyridin-2-yl]piperazine-1-carboxamide] | – | < 1 µM | – |
| CC(C)c1ccc(NC(=O)N2CCN(c3ncccc3C(F)(F)F)C[C@H]2C)cc1 [Compound 30, (2R)-N-(4-isopropylphenyl)-2-methyl-4-[3-(trifluoromethyl)pyridin-2-yl]piperazine-1-carboxamide] | < 1 µM | – | – |
| O=C(Nc1cccc(C(F)(F)F)c1)N1CCN(c2ncccc2C(F)(F)F)CC1 [Compound 110, N-[3-(trifluoromethyl)phenyl]-4-[3-(trifluoromethyl)pyridin-2-yl]piperazine-1-carboxamide] | – | < 1 µM | – |
| CC(c1ccc(NC(=O)N2CCN(c3ncccc3C(F)(F)F)C[C@H]2C)cc1)C(F)(F)F (stereo partly drawn) [Compound 129, (2R)-2-methyl-N-[4-(2,2,2-trifluoro-1-methylethyl)phenyl]-4-[3-(trifluoromethyl)pyridin-2-yl]piperazine-1-carboxamide] | – | < 1 µM | – |
| CC(C)c1ccc(NC(=S)N2CCN(c3ncccc3Cl)C[C@H]2C)cc1 [Compound 169] | – | – | IC50 (Table VI): < 1 µM |
| C[C@@H]1CN(c2ncccc2C(F)(F)F)CCN1C(=O)Nc1ccc(C2(O)CCOCC2)cc1 [Compound 51, (2R)-N-[4-(4-hydroxytetrahydro-2H-pyran-4-yl)phenyl]-2-methyl-4-[3-(trifluoromethyl)pyridin-2-yl]piperazine-1-carboxamide] | < 1 µM | – | – |
| CCC1CN(c2ncccc2C(F)(F)F)CCN1C(=O)Nc1ccc(C(C)(C)C)cc1 (centres unmarked) [Compound 61, N-(4-tert-butylphenyl)-2-ethyl-4-[3-(trifluoromethyl)pyridin-2-yl]piperazine-1-carboxamide] | < 1 µM | – | – |
| C[C@@H]1CN(c2nccc3ccccc23)CCN1C(=O)Nc1ccc(C2CCCC2)cc1 [Compound 41, (2R)-N-(4-cyclopentylphenyl)-4-isoquinolin-1-yl-2-methylpiperazine-1-carboxamide] | < 1 µM | – | – |
| CC1CN(c2ncccc2Cl)CC(C)N1C(=O)Nc1ccc(C(F)(F)F)cc1 (centres unmarked) [Compound 31, 4-(3-chloropyridin-2-yl)-2,6-dimethyl-N-[4-(trifluoromethyl)phenyl]piperazine-1-carboxamide] | < 1 µM | – | – |
| Cc1cc(NC(=O)N2CCN(c3ncccc3F)C[C@H]2C)ccc1C(F)(F)F [Compound 122, (2R)-4-(3-fluoropyridin-2-yl)-2-methyl-N-[3-methyl-4-(trifluoromethyl)phenyl]piperazine-1-carboxamide] | – | < 1 µM | – |
| Cc1cc(NC(=O)N2CCN(c3ncccc3C(F)(F)F)C[C@H]2C)ccc1C(F)(F)F [Compound 124, (2R)-2-methyl-N-[3-methyl-4-(trifluoromethyl)phenyl]-4-[3-(trifluoromethyl)pyridin-2-yl]piperazine-1-carboxamide] | – | < 1 µM | – |
| CC(C)(C)C1CN(c2ncccc2C(F)(F)F)CCN1C(=O)Nc1ccc(C(F)(F)F)cc1 (centres unmarked) [Compound 68, 2-tert-butyl-N-[4-(trifluoromethyl)phenyl]-4-[3-(trifluoromethyl)pyridin-2-yl]piperazine-1-carboxamide] | < 1 µM | – | – |
| C[C@@H]1CN(c2ncccc2C#N)CCN1C(=O)Nc1ccc(C(F)(F)F)cc1 [Compound 83, (2R)-4-(3-cyanopyridin-2-yl)-2-methyl-N-[4-(trifluoromethyl)phenyl]piperazine-1-carboxamide] | < 1 µM | – | – |
| C[C@@H]1CN(c2ncccc2Cl)CCN1C(=O)Nc1ccc(C(F)(F)F)cn1 [Compound 94, (2R)-4-(3-chloropyridin-2-yl)-2-methyl-N-[5-(trifluoromethyl)pyridin-2-yl]piperazine-1-carboxamide] | – | – | IC50 (Table IV): < 1 µM |

The next lines start with results.

| IC50 (Table III) | IC50 (Table V) | Structure (SMILES) | also measured |
| --- | --- | --- | --- |
| < 1 µM | – | C[C@@H]1CN(c2ncccc2Cl)CCN1C(=O)Nc1ccc(N2CCCCC2)cc1 [Compound 26, (2R)-4-(3-chloropyridin-2-yl)-2-methyl-N-(4-piperidin-1-ylphenyl)piperazine-1-carboxamide] | – |
| – | < 1 µM | Cc1cc(NC(=O)N2CCN(c3ncccc3Cl)C[C@H]2C)ccc1C(F)(F)F [Compound 121, (2R)-4-(3-chloropyridin-2-yl)-2-methyl-N-[3-methyl-4-(trifluoromethyl)phenyl]piperazine-1-carboxamide] | – |
| – | < 1 µM | C[C@@H]1CN(c2ncccc2Cl)CCN1C(=O)Nc1ccc(Cl)c(C(F)(F)F)c1 [Compound 158, (2R)-4-(3-chloropyridin-2-yl)-N-[4-chloro-3-(trifluoromethyl)phenyl]-2-methylpiperazine-1-carboxamide] | – |
| < 1 µM | – | C[C@@H]1CN(c2ncccc2Cl)CCN1C(=O)Nc1ccc(C2=CCOCC2)cc1 [Compound 48, (2R)-4-(3-chloropyridin-2-yl)-N-[4-(3,6-dihydro-2H-pyran-4-yl)phenyl]-2-methylpiperazine-1-carboxamide] | – |
| – | < 1 µM | C=C(c1ccc(NC(=O)N2CCN(c3ncccc3Cl)C[C@H]2C)cc1)C(F)(F)F [Compound 125, (2R)-4-(3-chloropyridin-2-yl)-2-methyl-N-{4-[1-(trifluoromethyl)vinyl]phenyl]piperazine-1-carboxamide] | – |
| < 1 µM | – | C[C@@H]1CN(c2ncccc2Cl)CCN1C(=O)Nc1ccc(C2CCCC2)cc1 [Compound 36, (2R)-4-(3-chloropyridin-2-yl)-N-(4-cyclopentylphenyl)-2-methylpiperazine-1-carboxamide] | – |
